Measured values taken from patent US11254686B1 (Corvus Pharmaceuticals, Inc., priority 2017, dated 2022).

Legend:
[1] = Liver microsome (LM) intrinsic clearance, rat; assay type: in vitro ADME
adenosine A2B receptor = adenosine A2B receptor (Homo sapiens (Human), UniProt P29275); assay: Adenosine receptor activity assay (Table 1), A2B activity; assay type: biochemical; conditions: for Ratio: A2A activity to A2B activity (A2A/A2B); for IC50: read-out: Ave A2B cAMP IC50
adenosine A2A receptor = adenosine A2A receptor (Homo sapiens (Human), UniProt P29274); assay: Adenosine receptor activity assay (Table 1), A2A activity; assay type: biochemical; conditions: read-out: Ave A2A cAMP IC50
adenosine A2A receptor, sequence (P29274 whole entry): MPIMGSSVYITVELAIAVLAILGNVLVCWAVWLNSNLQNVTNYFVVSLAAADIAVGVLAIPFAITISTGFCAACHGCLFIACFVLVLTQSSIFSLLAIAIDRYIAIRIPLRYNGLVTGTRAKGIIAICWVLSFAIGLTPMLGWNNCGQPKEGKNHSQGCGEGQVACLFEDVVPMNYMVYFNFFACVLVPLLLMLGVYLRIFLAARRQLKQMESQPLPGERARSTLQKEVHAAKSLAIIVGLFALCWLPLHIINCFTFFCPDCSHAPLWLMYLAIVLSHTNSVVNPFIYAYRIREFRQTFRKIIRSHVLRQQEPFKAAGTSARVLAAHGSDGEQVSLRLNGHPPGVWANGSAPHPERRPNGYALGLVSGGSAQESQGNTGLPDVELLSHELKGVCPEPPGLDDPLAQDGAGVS

CYP3A4 = CYP3A4 (Homo sapiens (Human), UniProt P08684); assay: CYP450 inhibition at 10 μM, CYP3A4; assay type: in vitro ADME; conditions: for inhibition at 10 µM: human, read-out: CYP 450 % INH @ 10 μM
CYP3A4, sequence (P08684 whole entry): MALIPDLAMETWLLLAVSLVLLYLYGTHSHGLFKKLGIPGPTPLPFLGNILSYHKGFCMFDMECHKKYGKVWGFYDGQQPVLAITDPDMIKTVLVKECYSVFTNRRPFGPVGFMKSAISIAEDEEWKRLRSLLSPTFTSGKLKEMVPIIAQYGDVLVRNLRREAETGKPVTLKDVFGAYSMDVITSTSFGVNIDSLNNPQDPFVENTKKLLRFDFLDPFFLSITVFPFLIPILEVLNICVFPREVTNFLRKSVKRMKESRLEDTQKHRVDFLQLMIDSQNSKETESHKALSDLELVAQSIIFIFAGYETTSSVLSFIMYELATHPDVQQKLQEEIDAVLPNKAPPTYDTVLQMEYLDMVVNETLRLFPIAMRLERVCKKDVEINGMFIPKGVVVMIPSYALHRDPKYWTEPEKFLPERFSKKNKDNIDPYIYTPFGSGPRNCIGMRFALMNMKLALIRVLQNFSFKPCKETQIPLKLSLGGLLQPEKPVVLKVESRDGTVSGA

[2] = Liver microsome (LM) intrinsic clearance, human; assay type: in vitro ADME
[3] = Hepatocyte (Hep) intrinsic clearance, human; assay type: in vitro ADME; conditions: hepatocytes
[4] = Hepatocyte (Hep) intrinsic clearance, rat; assay type: in vitro ADME; conditions: hepatocytes
adenosine A1 receptor = adenosine A1 receptor (Homo sapiens (Human), UniProt P30542); assay: A1 cAMP IC50 assay (Table 1); assay type: biochemical
adenosine A1 receptor, sequence (P30542 whole entry): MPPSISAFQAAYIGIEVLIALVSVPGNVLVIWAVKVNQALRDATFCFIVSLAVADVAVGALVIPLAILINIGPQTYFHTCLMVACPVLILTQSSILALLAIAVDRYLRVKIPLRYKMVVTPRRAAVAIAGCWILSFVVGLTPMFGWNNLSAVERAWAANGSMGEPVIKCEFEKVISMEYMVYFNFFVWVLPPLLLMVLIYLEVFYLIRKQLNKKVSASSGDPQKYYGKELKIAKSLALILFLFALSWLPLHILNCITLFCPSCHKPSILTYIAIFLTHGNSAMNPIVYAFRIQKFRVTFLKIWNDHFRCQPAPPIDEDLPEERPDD

CYP2D6 = CYP2D6 (Homo sapiens (Human), UniProt P10635); assay: CYP450 inhibition at 10 μM, CYP2D6; assay type: in vitro ADME; conditions: read-out: CYP 450 % INH @ 10 μM
CYP2D6, sequence (P10635 whole entry): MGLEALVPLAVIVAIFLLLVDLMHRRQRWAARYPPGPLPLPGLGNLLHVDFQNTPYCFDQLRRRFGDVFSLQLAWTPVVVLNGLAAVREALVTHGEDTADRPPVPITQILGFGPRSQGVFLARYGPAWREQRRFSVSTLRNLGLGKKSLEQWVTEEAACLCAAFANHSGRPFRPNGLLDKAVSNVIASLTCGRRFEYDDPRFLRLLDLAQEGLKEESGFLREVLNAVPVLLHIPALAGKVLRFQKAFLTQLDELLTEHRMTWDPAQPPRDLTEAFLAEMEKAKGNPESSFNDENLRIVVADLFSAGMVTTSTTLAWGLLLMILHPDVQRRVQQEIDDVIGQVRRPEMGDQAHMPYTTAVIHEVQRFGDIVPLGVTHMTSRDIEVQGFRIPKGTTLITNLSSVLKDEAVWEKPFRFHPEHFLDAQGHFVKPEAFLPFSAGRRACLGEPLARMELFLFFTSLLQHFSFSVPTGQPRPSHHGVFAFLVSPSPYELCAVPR

adenosine A3 receptor = adenosine A3 receptor (Homo sapiens (Human), UniProt P0DMS8); assay: A3 cAMP IC50 assay (Table 1); assay type: biochemical
adenosine A3 receptor, sequence (P0DMS8 whole entry): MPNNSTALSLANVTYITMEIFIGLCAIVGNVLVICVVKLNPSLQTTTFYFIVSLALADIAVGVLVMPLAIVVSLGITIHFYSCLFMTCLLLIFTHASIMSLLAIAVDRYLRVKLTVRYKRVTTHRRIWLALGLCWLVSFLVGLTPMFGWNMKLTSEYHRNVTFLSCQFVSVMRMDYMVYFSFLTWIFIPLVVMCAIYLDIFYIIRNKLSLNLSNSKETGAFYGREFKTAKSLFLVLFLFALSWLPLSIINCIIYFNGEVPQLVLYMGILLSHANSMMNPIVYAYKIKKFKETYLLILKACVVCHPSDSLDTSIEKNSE

adenosine A2B receptor, sequence (P29275 whole entry): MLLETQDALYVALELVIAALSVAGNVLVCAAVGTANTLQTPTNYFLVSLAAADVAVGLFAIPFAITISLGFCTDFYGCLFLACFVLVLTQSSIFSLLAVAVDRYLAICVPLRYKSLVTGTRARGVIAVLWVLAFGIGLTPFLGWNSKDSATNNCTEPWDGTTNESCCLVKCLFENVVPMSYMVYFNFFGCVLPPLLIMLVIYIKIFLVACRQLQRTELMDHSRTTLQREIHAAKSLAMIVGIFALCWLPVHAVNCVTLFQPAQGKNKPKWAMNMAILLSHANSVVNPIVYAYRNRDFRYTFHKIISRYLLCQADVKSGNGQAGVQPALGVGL

LM CLint [1]	Ratio (adenosine A2B receptor)	IC50 (adenosine A2B receptor)	IC50 (adenosine A2A receptor)	inhibition at 10 µM (CYP3A4)	LM CLint [2]	hepatocyte CLint [3]	hepatocyte CLint [4]	IC50 (adenosine A1 receptor)	inhibition at 10 µM (CYP2D6)	IC50 (adenosine A3 receptor)	CYP3A4 IC50 (CYP3A4)	Compound
27.86 μL/min/mg/protein	31.36	< 10 nM	100 to 500 nM	66%	23.61 μL/min/mg/protein	9.27 µL/min/1e6 cells	37.7 µL/min/1e6 cells	> 500 nM	38%	> 500 nM	–	C[C@H](Nc1nc(C(=O)N2CCC2)c2sccc2n1)c1cccnc1 [Example Z2, (S)-Azetidin-1-yl(2-((1-(pyridin-3-yl)ethyl)amino)thieno[3,2-d]pyrimidin-4-yl)methanone]
20.43 μL/min/mg/protein	7.83	10 to 50 nM	100 to 500 nM	74%	17.06 μL/min/mg/protein	7.75 µL/min/1e6 cells	47.6 µL/min/1e6 cells	> 500 nM	41%	> 500 nM	–	C[C@H](Nc1nc(C(=O)N2CC[C@@H](F)C2)c2sccc2n1)c1cccnc1 [Example Z8, ((R)-3-Fluoropyrrolidin-1-yl)(2-(((S)-1-(pyridin-3-yl)ethyl)amino)thieno[3,2-d]pyrimidin-4-yl)methanone]
28.41 μL/min/mg/protein	2.55	10 to 50 nM	50 to 100 nM	71%	15.83 μL/min/mg/protein	11.4 µL/min/1e6 cells	70.1 µL/min/1e6 cells	–	20%	–	–	C[C@H](Nc1nc(C(=O)N2CC[C@H](F)C2)c2sccc2n1)c1cccnc1 [Example Z9, ((S)-3-Fluoropyrrolidin-1-yl)(2-(((S)-1-(pyridin-3-yl)ethyl)amino)thieno[3,2-d]pyrimidin-4-yl)methanone]
32.42 μL/min/mg/protein	1.67	10 to 50 nM	50 to 100 nM	46%	17.68 μL/min/mg/protein	14.5 µL/min/1e6 cells	58.6 µL/min/1e6 cells	> 500 nM	13%	> 500 nM	–	COc1ccc(CNC(=O)c2nc(N[C@@H](C)c3ccccn3)nc3ccsc23)cn1 [Example Z16, (S)—N-((6-Methoxypyridin-3-yl)methyl)-2-((1-(pyridin-2-yl)ethyl)amino)thieno[3,2-d]pyrimidine-4-carboxamide]
44.15 μL/min/mg/protein	0.88	50 to 100 nM	50 to 100 nM	52%	14.28 μL/min/mg/protein	12.3 µL/min/1e6 cells	68.4 µL/min/1e6 cells	> 500 nM	44%	> 500 nM	–	CO[C@H]1CCN(C(=O)c2nc(N[C@@H](C)c3cccnc3)nc3ccsc23)C1 [Example Z18, ((S)-3-Methoxypyrrolidin-1-yl)(2-(((S)-1-(pyridin-3-yl)ethyl)amino)thieno[3,2-d]pyrimidin-4-yl)methanone]
63.06 μL/min/mg/protein	1.37	10 to 50 nM	10 to 50 nM	42%	17.60 μL/min/mg/protein	12.9 µL/min/1e6 cells	83.4 µL/min/1e6 cells	> 500 nM	51%	50 to 100 nM	–	CO[C@@H]1CCN(C(=O)c2nc(N[C@@H](C)c3cccnc3)nc3ccsc23)C1 [Example Z19, ((R)-3-Methoxypyrrolidin-1-yl)(2-(((S)-1-(pyridin-3-yl)ethyl)amino)thieno[3,2-d]pyrimidin-4-yl)methanone]
89.01 μL/min/mg/protein	–	–	100 to 500 nM	45%	43.24 μL/min/mg/protein	23.1 µL/min/1e6 cells	71.2 µL/min/1e6 cells	–	4%	–	12.4 µM	O=C(c1nc(NCc2cncc(F)c2)nc2ccsc12)N1CCCC1 [Example Z21, (2-(((5-Fluoropyridin-3-yl)methyl)amino)thieno[3,2-d]pyrimidin-4-yl)(pyrrolidin-1-yl)methanone]
9.22 μL/min/mg/protein	24.95	50 to 100 nM	> 500 nM	26%	4.28 μL/min/mg/protein	4.27 µL/min/1e6 cells	44 µL/min/1e6 cells	> 500 nM	16%	> 500 nM	–	C[C@H](Nc1nc(C(=O)N2CC[C@@H](O)C2)c2sccc2n1)c1cccnc1 [Example Z29, ((R)-3-Hydroxypyrrolidin-1-yl)(2-(((S)-1-(pyridin-3-yl)ethyl)amino)thieno[3,2-d]pyrimidin-4-yl)methanone]
129.90 μL/min/mg/protein	5.23	10 to 50 nM	> 500 nM	79%	126.01 μL/min/mg/protein	49 µL/min/1e6 cells	149 µL/min/1e6 cells	–	32%	–	–	Cc1cncc(CNc2nc(C(=O)N3CCCC3)c3sccc3n2)c1 [Example Z50, (2-(((5-Methylpyridin-3-yl)methyl)amino)thieno[3,2-d]pyrimidin-4-yl)(pyrrolidin-1-yl)methanone]
14.92 μL/min/mg/protein	7.15	< 10 nM	50 to 100 nM	10%	13.51 μL/min/mg/protein	10.9 µL/min/1e6 cells	42.7 µL/min/1e6 cells	–	0%	–	–	C[C@H](Nc1nc(C(=O)N2CC[C@H](F)C2)c2sccc2n1)c1ccccn1 [Example Z53, ((S)-3-Fluoropyrrolidin-1-yl)(2-(((S)-1-(pyridin-2-yl)ethyl)amino)thieno[3,2-d]pyrimidin-4-yl)methanone]
14.07 μL/min/mg/protein	15.71	10 to 50 nM	100 to 500 nM	24%	16.45 μL/min/mg/protein	7.1 µL/min/1e6 cells	21.2 µL/min/1e6 cells	–	4%	–	–	O=C(c1nc(NCc2cncc(F)c2)nc2ccsc12)N1CC[C@@H](O)C1 [Example Z66, (R)-(2-(((5-Fluoropyridin-3-yl)methyl)amino)thieno[3,2-d]pyrimidin-4-yl)(3-hydroxypyrrolidin-1-yl)methanone]
–	68.08	< 10 nM	> 500 nM	28.4%	–	4.11 µL/min/1e6 cells	19.9 µL/min/1e6 cells	> 500 nM	–	> 500 nM	–	O=C(c1nc(NCc2cncc(F)c2)nc2ccsc12)N1CC(O)C1 [Example Z109, (2-(((5-Fluoropyridin-3-yl)methyl)amino)thieno[3,2-d]pyrimidin-4-yl)(3-hydroxyazetidin-1-yl)methanone]
–	15.70	< 10 nM	50 to 100 nM	19.9%	–	8.64 µL/min/1e6 cells	45.4 µL/min/1e6 cells	> 500 nM	–	> 500 nM	–	CCNC(=O)c1nc(N[C@@H](C)c2ccccn2)nc2ccsc12 [Example Z111, (S)—N-Ethyl-2-((1-(pyridin-2-yl)ethyl)amino)thieno[3,2-d]pyrimidine-4-carboxamide]
–	71.92	< 10 nM	100 to 500 nM	75%	–	13.9 µL/min/1e6 cells	51.7 µL/min/1e6 cells	> 500 nM	–	> 500 nM	–	COC1CN(C(=O)c2nc(NCc3cncc(F)c3)nc3ccsc23)C1 [Example Z115, (2-(((5-Fluoropyridin-3-yl)methyl)amino)thieno[3,2-d]pyrimidin-4-yl)(3-methoxyazetidin-1-yl)methanone]
–	42.97	10 to 50 nM	> 500 nM	76.5%	–	5.54 µL/min/1e6 cells	22 µL/min/1e6 cells	> 500 nM	–	> 500 nM	–	O=C(NCCO)c1nc(NCc2cncc(F)c2)nc2ccsc12 [Example Z123, 2-(((5-Fluoropyridin-3-yl)methyl)amino)-N-(2-hydroxyethyl)thieno[3,2-d]pyrimidine-4-carboxamide]
–	15.42	< 10 nM	100 to 500 nM	-50.9%	–	42.8 µL/min/1e6 cells	144 µL/min/1e6 cells	> 500 nM	–	> 500 nM	–	C[C@H](Nc1nc(C(=O)N2CCCC2)c2sccc2n1)c1cccc(F)c1 [Example Z125, (S)-(2-((1-(3-Fluorophenyl)ethyl)amino)thieno[3,2-d]pyrimidin-4-yl)(pyrrolidin-1-yl)methanone]
–	72.09	< 10 nM	100 to 500 nM	62.7%	–	17.9 µL/min/1e6 cells	72.9 µL/min/1e6 cells	> 500 nM	–	> 500 nM	–	C[C@H](Nc1nc(C(=O)N2CCCC2)c2sccc2n1)c1cncc(F)c1 [Example Z134, (S)-(2-((1-(5-Fluoropyridin-3-yl)ethyl)amino)thieno[3,2-d]pyrimidin-4-yl)(pyrrolidin-1-yl)methanone]
